According to patent publication EP2380575B1, “Eslicarbazepine acetate and use” (Bial-Portela & CA, S.A., priority 2005, dated 2006):
Where two headings read alike, the source gives them in different places.

Experiments:
[1] = for share of total systemic drug exposure (as assessed by AUC0-24): 8 days multiple administration
Method: (§1) This human pharmacology trial was a study to investigate the steady-state pharmacokinetics of once-daily and twice-daily regimens of eslicarbazepine acetate in healthy subjects. […] On each of the treatment periods the volunteers received either a daily oral dose of eslicarbazepine acetate 900 mg once-daily (o.d.) or eslicarbazepine acetate 450 mg twice-daily (b.i.d.).
(§2) Blood samples were drawn either by direct venipuncture or via an intravenous catheter into lithium heparin tubes and centrifuged at approximately 1500 g for 10 minutes at 4°C. The resulting plasma was separated into 2 equal aliquots of 1 mL and stored at -20°C until required for analysis.
(§3) Plasma concentrations of eslicarbazepine acetate, eslicarbazepine, and R-licarbazepine were determined using isocratic liquid chromatography (LC) with single quadrupole mass spectrometric detection (MS).
(§4) The method involved the addition of 500 µL of approximately 0.5 µg/mL of 10,11-dihydrocarbamazepine (internal standard prepared in acetonitrile:water, 3:97, v:v) to 250 µL of plasma (centrifuged at 1800 rpm, prior to analysis) in a polypropylene tube. After vortex mixing for 10 seconds, the mixture was transferred to a Schleicher and Schuell C18/100 mg 96 well solid phase extraction plate. Each well was preconditioned with 800 µL methanol, followed by 800 µL acetonitrile and 800 µL acetonitrile:water (3:97, v:v) prior to application of the total sample volume. Each polypropylene tube was then washed with 500 µL acetonitrile:water (3:97, v:v) and the washings transferred to the respective well. The compounds were eluted into a collection plate with 750 µL acetonitrile and the extract evaporated to dryness under oxygen-free nitrogen, at 40°C. All solid phase extraction manipulations were undertaken using the Tomtec QUADRA 96® Model 320 system and a vacuum was applied at each elution step. The final extract was reconstituted in 100 µL of water:methanol (90:10, v:v) and mixed. The collection plate was then centrifuged at approximately 3000 rpm (at approximately 4°C, for approximately 10 minutes) prior to analysis. An aliquot of the final extract (10 µL) was injected onto the LC-MS system.
(§5) The LC-MS system used in the analysis consisted of a Perkin Elmer series 200 micro pump, a Perkin Elmer series 200 autosampler, and a Perkin Elmer/Sciex API 150EX single quadrupole mass spectrometer fitted with a Turbo IonSpray® source.
(§6) The pharmacokinetic parameters were derived from non-compartmental analysis using WinNonlin (Version 4.0, Pharsight Corporation, Mountain View, California).
(§7) Actual sampling times were used for the pharmacokinetic analysis. […] All calculations were made using raw data.
(§8) Summary statistics for each group and schedule sampling time were reported, as appropriate, using the geometric mean, arithmetic mean, standard deviation (SD), coefficient of variation (CV), median, minimum, and maximum. […] All tests of significance were performed at the p=0.05 level. The statistical package SAS (Version 8.2, SAS Institute Inc, Cary, NC) was used.

[2] = Trial B: pharmacokinetics following single and repeated doses in healthy young male subjects; format: in vivo, humans; conditions: for AUC(0-t) / half-life / Cmax / Tmax: male, human, oral; for AUC(0-t): read-out: Mean AUC0-24h (%CV); for half-life: read-out: Mean apparent t½ (%CV) (converted); for Cmax: read-out: Mean Cmax (%CV)
Method: The study integrated the results of three double-blind, randomized, placebo-controlled trials. To measure the pharmacokinetics of eslicarbazepine acetate following single doses, oral single doses of eslicarbazepine acetate ranging from 20 mg to 2400 mg were administered to healthy young male subjects (6 subjects per dose). The pharmacokinetics of eslicarbazepine acetate following repeated doses were measured by administering repeated oral doses ranging from 400 mg to 2400 mg of eslicarbazepine acetate to healthy young male subjects (6 subjects per dose) over a period of 8 days. Analytical test methods and experimental procedures were similar to those described for Trial A above.

[3] = clinical; conditions: both, human, plasma, po, 900 mg
Method: as §1, §2, §3, §4, §5, §6, §7, §8

[4] = multiple oral dose of 900 mg eslicarbazepine acetate once-daily, last dose, arithmetic mean
[5] = multiple oral dose of 900 mg eslicarbazepine acetate twice-daily (as titled), last dose, arithmetic mean
[6] = multiple oral dose of 900 mg eslicarbazepine acetate twice-daily (as titled), last dose, arithmetic mean, listed as Eslicarbazepine
[7] = in vivo, 50 mg, single dose 50 mg eslicarbazepine acetate, n=6
[8] = in vivo, 100 mg, single dose 100 mg eslicarbazepine acetate, n=6
[9] = in vivo, 200 mg, single dose 200 mg eslicarbazepine acetate, n=6
[10] = in vivo, 400 mg, last dose of 8-day repeated 400 mg o.d. eslicarbazepine acetate, n=6
[11] = in vivo, 400 mg, single dose 400 mg eslicarbazepine acetate, n=6
[12] = in vivo, 600 mg, single dose 600 mg eslicarbazepine acetate, n=6
[13] = in vivo, 800 mg, last dose of 8-day repeated 800 mg o.d. eslicarbazepine acetate, n=6
[14] = in vivo, 900 mg, single dose 900 mg eslicarbazepine acetate, n=6
[15] = in vivo, 1200 mg, last dose of 8-day repeated 1200 mg o.d. eslicarbazepine acetate, n=6
[16] = in vivo, 1200 mg, single dose 1200 mg eslicarbazepine acetate, n=6
[17] = in vivo, 1800 mg, last dose of 8-day repeated 1800 mg o.d. eslicarbazepine acetate, n=6
[18] = in vivo, 2400 mg, last dose of 8-day repeated 2400 mg o.d. eslicarbazepine acetate, n=6
[19] = plasma, 20 mg, single dose 20 mg eslicarbazepine acetate, n=6
[20] = plasma, 1800 mg, single dose 1800 mg eslicarbazepine acetate, n=6
[21] = plasma, 2400 mg, single dose 2400 mg eslicarbazepine acetate, n=6

total exposure in the once-daily group higher than in the twice-daily group ([1]; healthy volunteers, 900 mg daily): at least 26% | Tmax ([1]; multiple oral dose of 900 mg eslicarbazepine acetate once-daily, last dose): 2.45 h | AUC(0-t) [1, 4]: 381601 ng·h/mL | Cmax [1, 4]: 22210 ng/mL | AUC0-τ ([1]; multiple oral dose of 900 mg eslicarbazepine acetate once-daily, last dose, dosing interval 24 hours): 294.019 µg·h/mL | Tmax ([1]; multiple oral dose of 900 mg eslicarbazepine acetate twice-daily (as titled), last dose): 2.09 h | AUC0-∞ [1, 5]: 289.792 µg·h/mL | AUC(0-t) [1, 5]: 283,014 ng·h/mL | Cmax [1, 5]: 16,667 ng/mL | t1/2 [1, 5]: 9.17 h | AUC(0-t) [1, 6]: 283014 ng·h/mL | Cmax [1, 6]: 16667 ng/mL | AUC0-τ ([1]; multiple oral dose of 900 mg eslicarbazepine acetate twice-daily (as titled), last dose, dosing interval 12 hours): 142.08 µg·h/mL | share of total systemic drug exposure (as assessed by AUC0-24) ([1]; once-daily subjects): approximately 95% | share of total systemic drug exposure (as assessed by AUC0-24) ([1]; twice-daily subjects): ~96% | mean AUC0-24h ([2]; 400 mg once-daily doses of eslicarbazepine acetate): 126 µg·h/mL | mean AUC0-24h ([2]; 2400 mg once-daily doses of eslicarbazepine acetate): 906 µg·h/mL | Median tmax (range) ([2]; last dose of 8-day repeated 400 mg o.d. eslicarbazepine acetate, n=6): 3 (0.5-7) h | Median tmax (range) ([2]; last dose of 8-day repeated 800 mg o.d. eslicarbazepine acetate, n=6): 3.5 (1-7) h | Median tmax (range) ([2]; last dose of 8-day repeated 1200 mg o.d. eslicarbazepine acetate, n=6): 3 (0.5-6) h | Median tmax (range) ([2]; last dose of 8-day repeated 1800 mg o.d. eslicarbazepine acetate, n=6): 2 (0.5-4) h | Median tmax (range) ([2]; last dose of 8-day repeated 2400 mg o.d. eslicarbazepine acetate, n=6): 2 (1.5-8) h | mean Cmax ([2]; last dose, repeated once daily 400 mg doses of eslicarbazepine acetate): 8,800 ng/ML | mean Cmax ([2]; last dose, repeated once daily 2400 mg doses of eslicarbazepine acetate): 56,500 ng/ML | AUC(0-t) [2, 7]: 6.7 µg·h/mL | half-life [2, 7]: 8.1 h | AUC(0-t) [2, 8]: 16.4 µg·h/mL | Cmax [2, 8]: 1500 ng/mL | half-life [2, 8]: 9.3 h | AUC(0-t) [2, 9]: 30.5 µg·h/mL | Cmax [2, 9]: 2900 ng/mL | half-life [2, 9]: 8.4 h | AUC(0-t) [2, 10]: 126 µg·h/mL | Cmax [2, 10]: 8800 ng/mL | half-life [2, 10]: 9.5 h | AUC(0-t) [2, 11]: 81.5 µg·h/mL | Cmax [2, 11]: 5200 ng/mL | half-life [2, 11]: 11.7 h | AUC(0-t) [2, 12]: 120 µg·h/mL | Cmax [2, 12]: 8500 ng/mL | half-life [2, 12]: 12.3 h | AUC(0-t) [2, 13]: 268 µg·h/mL | Cmax [2, 13]: 18700 ng/mL | half-life [2, 13]: 12.3 h | AUC(0-t) [2, 14]: 210 µg·h/mL | Cmax [2, 14]: 15000 ng/mL | half-life [2, 14]: 16.3 h | AUC(0-t) [2, 15]: 423 µg·h/mL | Cmax [2, 15]: 25500 ng/mL | half-life [2, 15]: 13.1 h | AUC(0-t) [2, 16]: 286 µg·h/mL | Cmax [2, 16]: 18600 ng/mL | half-life [2, 16]: 16.5 h | AUC(0-t) [2, 17]: 740 µg·h/mL | Cmax [2, 17]: 47700 ng/mL | half-life [2, 17]: 11.3 h | AUC(0-t) [2, 18]: 906 µg·h/mL | Cmax [2, 18]: 56500 ng/mL | half-life [2, 18]: 10.4 h | Tmax ([2]; in vivo, single dose 50 mg eslicarbazepine acetate, n=6, read-out: Median tmax (range)): 0.8 h | Tmax ([2]; in vivo, single dose 100 mg eslicarbazepine acetate, n=6, read-out: Median tmax (range)): 1.5 h | Tmax ([2]; in vivo, single dose 200 mg eslicarbazepine acetate, n=6, read-out: Median tmax (range)): 1.5 h | Tmax ([2]; in vivo, single dose 400 mg eslicarbazepine acetate, n=6, read-out: Median tmax (range)): 4 h | Tmax ([2]; in vivo, single dose 600 mg eslicarbazepine acetate, n=6, read-out: Median tmax (range)): 4 h | Tmax ([2]; in vivo, single dose 900 mg eslicarbazepine acetate, n=6, read-out: Median tmax (range)): 2.3 h | Tmax ([2]; in vivo, single dose 1200 mg eslicarbazepine acetate, n=6, read-out: Median tmax (range)): 4 h | AUC(0-t) [2, 19]: 2.4 µg·h/mL | Cmax [2, 19]: 300 ng/mL | half-life [2, 19]: 9.1 h | Cmax ([2]; plasma, 50 mg, single dose 50 mg eslicarbazepine acetate, n=6): 900 ng/mL | AUC(0-t) [2, 20]: 508 µg·h/mL | Cmax [2, 20]: 34600 ng/mL | half-life [2, 20]: 11.8 h | AUC(0-t) [2, 21]: 0.446 µg·h/mL | Cmax [2, 21]: 35900 ng/mL | half-life [2, 21]: 11.1 h | Tmax ([2]; plasma, last dose, repeated once daily, all dosages, read-out: median tmax): 2 to 3.5 h | Tmax ([2]; plasma, single dose 20 mg eslicarbazepine acetate, n=6, read-out: Median tmax (range)): 0.8 h | Tmax ([2]; plasma, single dose 1800 mg eslicarbazepine acetate, n=6, read-out: Median tmax (range)): 3.5 h | Tmax ([2]; plasma, single dose 2400 mg eslicarbazepine acetate, n=6, read-out: Median tmax (range)): 3 h | AUC(0-inf) [3]: 389 µg·h/mL | AUC(0-t) [3]: 382 µg·h/mL | Cmax [3]: 22200 ng/mL | Tmax [3]: 2.45 h | half-life [3]: 9.12 h
Structure (SMILES): NC(=O)N1c2ccccc2C[C@H](O)c2ccccc21 [eslicarbazepine]
